The record followed here is ChEMBL document CHEMBL1649349, “Discovery of a novel nitroimidazolyl-oxazolidinone hybrid with potent anti Gram-positive activity: Synthesis and antibacterial evaluation” (Eur J Med Chem, 2011).

One assay has as its system Klebsiella pneumoniae. Kind of assay: Antimicrobial activity against Klebsiella pneumoniae ATCC 10031 by conventional agar-dilution method. It is filed as functional.
Assay [1] relates to Staphylococcus aureus. The assay can be described thus: Antimicrobial activity against methicillin-resistant Staphylococcus aureus 3 by conventional agar-dilution method. It is filed as functional.
Assay [2] has as its system Staphylococcus aureus. Kind of assay: Antimicrobial activity against methicillin-resistant Staphylococcus aureus 5 by conventional agar-dilution method. It is filed as functional.
A further assay concerns Staphylococcus warneri. Kind of assay: Antimicrobial activity against Staphylococcus warneri ATCC 27836 by conventional agar-dilution method. In kind it is functional.
A further assay has as its system Staphylococcus xylosus. Kind of assay: Antimicrobial activity against Staphylococcus xylosus ATCC 2997 by conventional agar-dilution method. It is filed as functional.
The next assay relates to Pseudomonas aeruginosa. The assay can be described thus: Antimicrobial activity against Pseudomonas aeruginosa ATCC 9027 by conventional agar-dilution method. It is filed as functional.
Assay [3] deals with Staphylococcus epidermidis. The assay can be described thus: Antimicrobial activity against Staphylococcus epidermidis ATCC 12228 by conventional agar-dilution method. In kind it is functional.
Assay [4] relates to Corynebacterium glutamicum. Kind of assay: Antimicrobial activity against Corynebacterium glutamicum ATCC 13032 by conventional agar-dilution method. It is filed as functional.
The next assay relates to Micrococcus luteus. Kind of assay: Antimicrobial activity against Micrococcus luteus ATCC 9341 by conventional agar-dilution method. It is filed as functional.
In assay [5] the test system is Staphylococcus aureus. Kind of assay: Antimicrobial activity against methicillin-resistant Staphylococcus aureus 17 by conventional agar-dilution method. It is filed as functional.
The next assay relates to Bacillus subtilis. The assay can be described thus: Antimicrobial activity against Bacillus subtilis PTCC 1023 by conventional agar-dilution method. It is filed as functional.
The subject of assay [6] is Staphylococcus saprophyticus. The assay can be described thus: Antimicrobial activity against Staphylococcus saprophyticus ATCC 15305 by conventional agar-dilution method. It is filed as functional.
A further assay has as its system Escherichia coli. Kind of assay: Antimicrobial activity against Escherichia coli ATCC 8739 by conventional agar-dilution method. In kind it is functional.
Another assay concerns Mammaliicoccus lentus. The assay can be described thus: Antimicrobial activity against Staphylococcus lentus ATCC 29070 by conventional agar-dilution method. It is filed as functional.
The test system of assay [7] is Staphylococcus aureus. The assay can be described thus: Antimicrobial activity against Staphylococcus aureus ATCC 6538p by conventional agar-dilution method. In kind it is functional.
Assay [8] is described as follows: Cytotoxicity against mouse NIH/3T3 cells by MTT colorimetric assay. In kind it is cell-based. The note with it: NIH3T3.

≈ marks a conversion by molar mass, not a printed value.

For the compound `CC(=O)NC[C@H]1CN(c2ccc(N3CCOCC3)c(F)c2)C(=O)O1` [LINEZOLID], the minimum inhibitory concentration (MIC) against Klebsiella pneumoniae is 6.25 µg/mL (≈ 18.5 µM); against Staphylococcus aureus [1], 0.781 µg/mL (≈ 2.32 µM); against Staphylococcus aureus [2] it was 0.781 µg/mL (≈ 2.32 µM); with Staphylococcus warneri it was 0.781 µg/mL (≈ 2.32 µM); against Staphylococcus xylosus, 0.781 µg/mL (≈ 2.32 µM); against Pseudomonas aeruginosa, more than 100 µg/mL. In addition, the MIC in assay [3] stood at 0.781 µg/mL (≈ 2.32 µM); in [4] it was 0.781 µg/mL (≈ 2.32 µM); in the assay on Micrococcus luteus, 0.781 µg/mL (≈ 2.32 µM); in the assay on Staphylococcus aureus [5] it was 0.781 µg/mL (≈ 2.32 µM); against Bacillus subtilis, 0.391 µg/mL (≈ 1.16 µM); in assay [6], 0.781 µg/mL (≈ 2.32 µM). In addition, the values for the MIC in the assay on Escherichia coli, against Mammaliicoccus lentus and against Staphylococcus aureus [7] were more than 100 µg/mL, 1.56 µg/mL (≈ 4.63 µM) and 0.781 µg/mL (≈ 2.32 µM), respectively.
In the case of `CC(=O)NC[C@H]1CN(c2ccc(N3CCNCC3)c(F)c2)C(=O)O1`, the MIC against Klebsiella pneumoniae was 25 µg/mL (≈ 74.3 µM); in the assay with Staphylococcus aureus [1], 25 µg/mL (≈ 74.3 µM); against Staphylococcus aureus [2], 12.5 µg/mL (≈ 37.2 µM); in the assay with Staphylococcus warneri, 18 µg/mL (≈ 53.5 µM); against Staphylococcus xylosus, 3.12 µg/mL (≈ 9.29 µM); in the assay on Pseudomonas aeruginosa, more than 100 µg/mL. Also, the MIC worked out at 6.25 µg/mL (≈ 18.6 µM) in assay [3]; 1.56 µg/mL (≈ 4.65 µM) in [4]; 1.56 µg/mL (≈ 4.65 µM) in the assay on Micrococcus luteus; 25 µg/mL (≈ 74.3 µM) in the assay on Staphylococcus aureus [5]; 12.5 µg/mL (≈ 37.2 µM) with Bacillus subtilis; 3.12 µg/mL (≈ 9.29 µM) in assay [6]. The MIC in the assay on Escherichia coli came to 50 µg/mL (≈ 149 µM); in the assay with Mammaliicoccus lentus, 12.5 µg/mL (≈ 37.2 µM); against Staphylococcus aureus [7], 12.5 µg/mL (≈ 37.2 µM). In assay [8], the half-inhibitory concentration (IC50) is more than 200 µg/mL.
As for `CC(=O)NC[C@H]1CN(c2ccc(N3CCN(c4nnc(-c5ncc([N+](=O)[O-])n5C)s4)CC3)c(F)c2)C(=O)O1`, the MIC with Klebsiella pneumoniae was 0.781 µg/mL (≈ 1.43 µM); against Staphylococcus aureus [1], 0.391 µg/mL (≈ 0.717 µM); against Staphylococcus aureus [2], 0.195 µg/mL (≈ 0.357 µM); against Staphylococcus warneri, 0.006 µg/mL (≈ 0.011 µM); with Staphylococcus xylosus, 0.049 µg/mL (≈ 0.0898 µM); against Pseudomonas aeruginosa it was more than 100 µg/mL. Further, the MIC was found to be 0.024 µg/mL (≈ 0.044 µM) in [3]; 0.195 µg/mL (≈ 0.357 µM) in [4]; 0.195 µg/mL (≈ 0.357 µM) against Micrococcus luteus; 0.024 µg/mL (≈ 0.044 µM) in the assay with Staphylococcus aureus [5]; 0.098 µg/mL (≈ 0.18 µM) against Bacillus subtilis; 0.024 µg/mL (≈ 0.044 µM) in assay [6]. Further, the values for the minimal inhibitory concentration (MIC) against Escherichia coli, against Mammaliicoccus lentus and in the assay on Staphylococcus aureus [7] were more than 100 µg/mL, 0.098 µg/mL (≈ 0.18 µM) and 0.098 µg/mL (≈ 0.18 µM), respectively. This compound yielded a half-maximal inhibitory concentration (IC50) in assay [8] of more than 200 µg/mL.
On to `O=C(O)c1cn(C2CC2)c2cc(N3CCNCC3)c(F)cc2c1=O` [CIPROFLOXACIN], for which the MIC in the assay with Klebsiella pneumoniae worked out at 0.003 µg/mL (≈ 0.00905 µM); with Staphylococcus aureus [1], 0.391 µg/mL (≈ 1.18 µM); against Staphylococcus aureus [2], 0.391 µg/mL (≈ 1.18 µM); against Staphylococcus warneri it was 0.195 µg/mL (≈ 0.589 µM); against Staphylococcus xylosus it was 0.391 µg/mL (≈ 1.18 µM); against Pseudomonas aeruginosa, 0.0391 µg/mL (≈ 0.118 µM). For the same compound, the MIC was determined as 0.391 µg/mL (≈ 1.18 µM) in assay [3]; 0.391 µg/mL (≈ 1.18 µM) in [4]; 3.12 µg/mL (≈ 9.43 µM) against Micrococcus luteus; 0.391 µg/mL (≈ 1.18 µM) in the assay on Staphylococcus aureus [5]; 0.195 µg/mL (≈ 0.589 µM) with Bacillus subtilis; 0.098 µg/mL (≈ 0.296 µM) in [6]. In addition, the MIC against Mammaliicoccus lentus was 0.781 µg/mL (≈ 2.36 µM); in the assay on Staphylococcus aureus [7], 0.195 µg/mL (≈ 0.589 µM).
`CC(=O)NC[C@H]1CN(c2ccc(N3CCN(c4nnc(-c5ccc([N+](=O)[O-])s5)s4)CC3)c(F)c2)C(=O)O1`: the MIC against Klebsiella pneumoniae was 100 µg/mL (≈ 183 µM); against Staphylococcus aureus [1], 0.195 µg/mL (≈ 0.356 µM); with Staphylococcus aureus [2] it was 6.25 µg/mL (≈ 11.4 µM); against Staphylococcus warneri, 0.049 µg/mL (≈ 0.0895 µM); against Staphylococcus xylosus it was 0.098 µg/mL (≈ 0.179 µM); in the assay with Pseudomonas aeruginosa, more than 100 µg/mL. Moreover, the MIC in assay [3] stood at 0.024 µg/mL (≈ 0.0438 µM); in [4], 6.25 µg/mL (≈ 11.4 µM); with Micrococcus luteus, 6.25 µg/mL (≈ 11.4 µM); in the assay on Staphylococcus aureus [5], 0.098 µg/mL (≈ 0.179 µM); in the assay on Bacillus subtilis it was 0.781 µg/mL (≈ 1.43 µM); in [6], 0.195 µg/mL (≈ 0.356 µM). Also, the minimal inhibitory concentration (MIC) with Escherichia coli was more than 100 µg/mL; against Mammaliicoccus lentus, 0.098 µg/mL (≈ 0.179 µM); in the assay on Staphylococcus aureus [7], 0.098 µg/mL (≈ 0.179 µM). In assay [8], this compound gave an IC50 of 184 µg/mL (≈ 336 µM).
With `CC(=O)NC[C@H]1CN(c2ccc(N3CCN(c4nnc(-c5ccc([N+](=O)[O-])o5)s4)CC3)c(F)c2)C(=O)O1`, the minimal inhibitory concentration (MIC) against Klebsiella pneumoniae is 50 µg/mL (≈ 94.1 µM); in the assay with Staphylococcus aureus [1], 0.049 µg/mL (≈ 0.0922 µM); in the assay on Staphylococcus aureus [2] it was 0.195 µg/mL (≈ 0.367 µM); in the assay with Staphylococcus warneri, 0.006 µg/mL (≈ 0.0113 µM); against Staphylococcus xylosus, 0.024 µg/mL (≈ 0.0452 µM); in the assay with Pseudomonas aeruginosa, more than 100 µg/mL. For the same compound, the MIC in assay [3] was 0.006 µg/mL (≈ 0.0113 µM); in assay [4], 0.195 µg/mL (≈ 0.367 µM); against Micrococcus luteus, 0.391 µg/mL (≈ 0.736 µM); against Staphylococcus aureus [5], 0.012 µg/mL (≈ 0.0226 µM); against Bacillus subtilis, 0.391 µg/mL (≈ 0.736 µM); in assay [6], 0.024 µg/mL (≈ 0.0452 µM). For the same compound, the results for the MIC against Escherichia coli, in the assay on Mammaliicoccus lentus and with Staphylococcus aureus [7] were more than 100 µg/mL, 0.012 µg/mL (≈ 0.0226 µM) and 0.012 µg/mL (≈ 0.0226 µM), respectively. The midpoint of inhibition in assay [8], the IC50, lay at 21.8 µg/mL (≈ 41 µM).
